Experimental findings from patent US20010007679A1, “(S,R) FORMOTEROL METHODS AND COMPOSITIONS” (priority 1999, published 2001) are described below.

A word on the IC50: it is the midpoint of a concentration-inhibition curve. Lower therefore signals greater potency. As a reminder, the inhibition is the percentage by which the read-out fell short of the control.

Test [1] has as its target human β1-adrenergic receptor (Homo sapiens, UniProt P08588). Kind of test: Second series: binding competition, human β1. The conditions noted are these: for IC50: IC50 (nM) β1, Second series (human).
Test [2] deals with human β2-adrenergic receptor (Homo sapiens, UniProt P07550). Kind of test: Second series: binding competition, human β2. To be noted: for IC50: IC50 (nM) β2, Second series (human); for β2 Selectivity (β1/β2): Second series (human). As for the experimental part: (R,S)- and (S,R)-desformoterol were screened, in duplicate at three concentrations (10^−9, 10^−7, 10^−5 M), for binding to human β1 and β2-adrenergic receptors. Compounds that inhibited specific binding ≧50% were then tested further at ten concentrations in duplicate in order to obtain full competition curves. Reference compounds were simultaneously tested at eight concentrations.

Test [3] relates to BEAS-2B cells. Kind of test: Intrinsic activity: cAMP production by radioimmunoassay. To be noted: 100-times the Kd concentration, relative to isoproterenol (set to 1.0). The test is classed as cell-based. How it is done:
The assessment of intrinsic activity was evaluated in BEAS-2B cells grown to confluence. […] Samples were assayed for cAMP by radioimmunoassay.

A value given as a limit tells only on which side of the number the result lay.

Sequence of human β2-adrenergic receptor (P07550 whole entry): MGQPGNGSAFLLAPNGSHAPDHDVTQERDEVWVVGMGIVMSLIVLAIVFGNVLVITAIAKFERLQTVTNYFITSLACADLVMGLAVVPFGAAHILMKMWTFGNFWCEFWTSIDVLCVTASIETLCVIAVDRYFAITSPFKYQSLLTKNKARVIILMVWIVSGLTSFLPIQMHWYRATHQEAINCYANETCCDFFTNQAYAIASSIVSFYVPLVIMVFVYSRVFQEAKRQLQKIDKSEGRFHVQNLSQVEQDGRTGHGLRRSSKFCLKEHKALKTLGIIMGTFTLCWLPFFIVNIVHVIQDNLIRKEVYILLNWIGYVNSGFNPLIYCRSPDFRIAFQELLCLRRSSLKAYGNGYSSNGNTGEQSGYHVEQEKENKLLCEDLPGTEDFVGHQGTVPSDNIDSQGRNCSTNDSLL
Sequence of human β1-adrenergic receptor (P08588 whole entry): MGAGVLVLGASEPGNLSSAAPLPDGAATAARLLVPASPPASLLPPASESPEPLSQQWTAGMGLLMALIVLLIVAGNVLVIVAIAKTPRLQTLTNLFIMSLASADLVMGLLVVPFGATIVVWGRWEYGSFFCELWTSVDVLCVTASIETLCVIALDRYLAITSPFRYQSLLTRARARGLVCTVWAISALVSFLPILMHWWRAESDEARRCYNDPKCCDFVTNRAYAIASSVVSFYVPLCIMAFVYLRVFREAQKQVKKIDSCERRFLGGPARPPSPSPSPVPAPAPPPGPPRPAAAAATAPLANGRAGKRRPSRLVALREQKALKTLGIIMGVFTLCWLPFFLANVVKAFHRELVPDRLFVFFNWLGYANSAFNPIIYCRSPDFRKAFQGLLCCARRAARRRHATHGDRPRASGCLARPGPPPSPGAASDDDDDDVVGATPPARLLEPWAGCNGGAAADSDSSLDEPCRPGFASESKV

Compound `COc1ccc(CC(C)NCC(O)c2ccc(O)c(N)c2)cc1` (single isomer, unassigned) [(R,R)-Desformoterol, 3-Amino-4-hydroxy-α-[[[2-(4-methoxyphenyl)-1-methylethyl]amino]methyl]-benzenemethanol] came in with an IC50 in test [1] of 3180 nM. In test [2], the 50% inhibitory concentration (IC50) was 35.6 nM and the “β2 Selectivity (β1/β2)” value stood at 89.

The compound `COc1ccc(CC(C)NCC(O)c2ccc(O)c(N)c2)cc1` (single isomer, unassigned) [(R,S)-Desformoterol, 3-Amino-4-hydroxy-α-[[[2-(4-methoxyphenyl)-1-methylethyl]amino]methyl]-benzenemethanol] yielded a 50% inhibitory concentration (IC50) in test [1] of 1790 nM. In addition, in test [2], the 50% inhibitory concentration (IC50) came out at 3140 nM and the “β2 Selectivity (β1/β2)” value was found to be 0.6.

`COc1ccc(CC(C)NCC(O)c2ccc(O)c(N)c2)cc1` (single isomer, unassigned) [(S,S)-Desformoterol, 3-Amino-4-hydroxy-α-[[[2-(4-methoxyphenyl)-1-methylethyl]amino]methyl]-benzenemethanol]: the IC50 was 64700 nM in test [1] and greater than 10000 nM in test [2].

Consider `CC(C)(C)NC[C@H](O)c1ccc(O)c(CO)c1` [(R)-Albuterol], for which the “Intrinsic Activity (cAMP)” value in test [3] turned out to be 0.44.

Compound `COc1ccc(CC(C)NCC(O)c2ccc(O)c(N)c2)cc1` [(R,R/S,S)-Desformoterol, 3-Amino-4-hydroxy-α-[[[2-(4-methoxyphenyl)-1-methylethyl]amino]methyl]-benzenemethanol] registered an IC50 in test [1] of 5140 nM. Moreover, in test [2], the half-maximal inhibitory concentration (IC50) was determined as 81.3 nM and the “β2 Selectivity (β1/β2)” value stood at 63.

Turning to `COc1ccc(C[C@@H](C)NCC(O)c2ccc(O)c(N)c2)cc1` (stereo partly drawn) [(S,R)-Desformoterol, 3-Amino-4-hydroxy-α-[[[2-(4-methoxyphenyl)-1-methylethyl]amino]methyl]-benzenemethanol], the inhibition at 10 µM in test [1] (read-out: inhibition of specific binding at β1) worked out at 22%. In test [2], this compound came in with an IC50 of 1830 nM.

For the compound `CC(C)NCC(O)c1ccc(O)c(O)c1` (stereo not drawn) [Isoproterenol], the “Intrinsic Activity (cAMP)” value in test [3] was 1.00.
